According to patent publication US9187429B2, “Phenyl-tetrahydroisoquinoline derivatives” (Hoffmann-La Roche Inc., priority 2012, dated 2015):
pEC50: −log10 of the molar value.

How the values were obtained:
CYP11B2 [1] = biological target: T1, CYP11B2 (Homo sapiens (Human), UniProt P19099); experiment: G-402 cellular enzyme assay, human CYP11B2 (aldosterone release); type: cell-based; conditions: G-402 cells expressing human CYP11B2, 1 μM Deoxycorticosterone
Summary of the method: (§1)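 G-402 cells stably transfected with human CYP11B2 or CYP11B1, dosed with inhibitor and 1 μM deoxycorticosterone (CYP11B2) or 1 μM deoxycortisol (CYP11B1). Aldosterone or cortisol in supernatant quantified by HTRF; EC50 from 4-parameter MMF fit of steroid level versus inhibitor concentration.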

human CYP11B1 = human CYP11B1 (Homo sapiens (Human), UniProt P15538); experiment: G-402 cellular enzyme assay, human CYP11B1 (cortisol release); type: cell-based; conditions: G-402 cells expressing human CYP11B1, 1 μM Deoxycortisol
Summary of the method: as §1

[2] = rat CKD model; FAD286 4 weeks of treatment, spironolactone 4 and 8 weeks; cited from earlier work
CYP11B2 [3] = biological target: T1, CYP11B2; conditions: patients with primary aldosteronism, oral; cited from earlier work

human CYP11B1, sequence (P15538 25-503): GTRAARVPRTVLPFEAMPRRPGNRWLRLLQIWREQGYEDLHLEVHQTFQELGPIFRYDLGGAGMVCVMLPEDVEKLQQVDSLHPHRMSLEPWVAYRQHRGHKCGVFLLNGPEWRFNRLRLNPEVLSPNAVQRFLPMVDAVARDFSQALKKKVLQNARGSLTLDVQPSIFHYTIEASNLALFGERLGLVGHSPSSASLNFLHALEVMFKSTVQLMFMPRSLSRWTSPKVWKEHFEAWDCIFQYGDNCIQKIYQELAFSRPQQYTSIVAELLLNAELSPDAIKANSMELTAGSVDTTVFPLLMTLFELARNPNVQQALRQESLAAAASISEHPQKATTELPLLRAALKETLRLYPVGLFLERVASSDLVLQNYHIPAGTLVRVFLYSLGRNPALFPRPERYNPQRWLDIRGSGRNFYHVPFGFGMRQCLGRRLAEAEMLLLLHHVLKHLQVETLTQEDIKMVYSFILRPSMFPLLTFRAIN
T1 sequence (P19099 25-503): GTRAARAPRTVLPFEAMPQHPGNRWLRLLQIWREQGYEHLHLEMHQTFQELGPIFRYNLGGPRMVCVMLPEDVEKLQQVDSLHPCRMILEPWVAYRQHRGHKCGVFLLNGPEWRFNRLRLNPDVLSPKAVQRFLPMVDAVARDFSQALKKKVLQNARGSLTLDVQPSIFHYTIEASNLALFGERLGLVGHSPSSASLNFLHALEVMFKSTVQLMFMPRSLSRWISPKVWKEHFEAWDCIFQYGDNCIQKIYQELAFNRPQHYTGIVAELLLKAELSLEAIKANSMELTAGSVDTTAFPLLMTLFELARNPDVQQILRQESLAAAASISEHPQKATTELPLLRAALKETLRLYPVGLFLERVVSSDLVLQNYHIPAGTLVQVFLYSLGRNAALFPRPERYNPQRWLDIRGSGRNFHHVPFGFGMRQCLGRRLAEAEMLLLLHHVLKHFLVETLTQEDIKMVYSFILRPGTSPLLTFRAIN

| Compound | pEC50 (CYP11B2 [1]) | pEC50 (human CYP11B1) | further results |
| --- | --- | --- | --- |
| CCC(=O)NC1CCCc2c(-c3ccc(Cl)cc3)cncc21 (single isomer, unassigned; (-)) [Example 25, (−)-(S or R)—N-(4-(4-Chlorophenyl)-5,6,7,8-tetrahydroisoquinolin-8-yl)propionamide] | 6.33 | 4.64 |  |
| CCC(=O)NC1CCCc2c(-c3ccc(F)c(C)c3)cncc21 (single isomer, unassigned; (-)) [Example 28, (−)-(S or R)—N-(4-(4-Fluoro-3-methylphenyl)-5,6,7,8-tetrahydroisoquinolin-8-yl)propionamide] | 6.65 | 4.52 |  |
| CCC(=O)NC1CCCc2c(-c3ccc(C(F)(F)F)cc3F)cncc21 (single isomer, unassigned; (-)) [Example 34, (−)-(S or R)—N-(4-(2-Fluoro-4-(trifluoromethyl)phenyl)-5,6,7,8-tetrahydroisoquinolin-8-yl)propionamide] | 5.35 | 4.37 |  |
| CCC(=O)NC1CCCc2c(-c3ccc(Cl)c(F)c3)cncc21 (single isomer, unassigned; (-)) [Example 37, (−)-(S or R)—N-(4-(4-Chloro-3-fluorophenyl)-5,6,7,8-tetrahydroisoquinolin-8-yl)propionamide] | 5.90 | 4.50 |  |
| CCC(=O)NC1CCCc2c(-c3ccc(C(F)(F)F)c(F)c3)cncc21 (single isomer, unassigned; (-)) [Example 40, (−)-(S or R)—N-(4-(3-Fluoro-4-(trifluoromethyl)phenyl)-5,6,7,8-tetrahydroisoquinolin-8-yl)propionamide] | 5.31 | 4.49 |  |
| C[C@@H](O)C(=O)NC1CCCc2c(-c3ccc(C(F)(F)F)cc3)cncc21 (single isomer, unassigned; (-)) [Example 48, (−)-(R)-2-Hydroxy-N—[(S or R)-4-(4-trifluoromethyl-phenyl)-5,6,7,8-tetrahydro-isoquinolin-8-yl]-propionamide] | 7.10 | 5.68 |  |
| CCC(=O)NC1CCc2c(-c3ccc(Cl)c(F)c3)cncc21 (single isomer, unassigned; (-)) [Example 56, (−)-(S or R)—N-(4-(4-Chloro-3-fluorophenyl)-6,7-dihydro-5H-cyclopenta[c]pyridin-7-yl)propionamide] | 5.49 | 4.42 |  |
| CCC(=O)NC1CCc2c(-c3ccc(C(F)(F)F)cc3F)cncc21 (single isomer, unassigned; (-)) [Example 62, (−)-(S or R)—N-(4-(2-Fluoro-4-(trifluoromethyl)phenyl)-6,7-dihydro-5H-cyclopenta[c]pyridin-7-yl)propionamide] | 5.78 | 4.83 |  |
| CCS(=O)(=O)NC1CCc2c(-c3ccc(C(F)(F)F)cc3)cncc21 (single isomer, unassigned; (-)) [Example 65, (−)-(S or R)—N-(4-(4-(Trifluoromethyl)phenyl)-6,7-dihydro-5H-cyclopenta[c]pyridin-7-yl)ethanesulfonamide] | 5.79 | 5.97 |  |
| OC1CCCc2c(-c3ccc(C(F)(F)F)cc3)cncc21 (single isomer, unassigned; (-)) [Example 105, (−)-(S or R)-4-(4-(Trifluoromethyl)phenyl)-5,6,7,8-tetrahydroisoquinolin-8-ol] | 6.97 | 5.78 |  |
| C[C@@H](O)C(=O)NC1CCCc2c(-c3ccc(C(F)(F)F)cc3)cncc21 (stereo partly drawn) [Example 46, (R)-2-Hydroxy-N—[(S,R)-4-(4-trifluoromethyl-phenyl)-5,6,7,8-tetrahydro-isoquinolin-8-yl]-propionamide] | 6.80 | 5.43 |  |
| C[C@@H](O)C(=O)NC1CCc2c(-c3ccc(C(F)(F)F)cc3)cncc21 (stereo partly drawn) [Example 52, (R)-2-Hydroxy-N—((R,S)-4-(4-(trifluoromethyl)phenyl)-6,7-dihydro-5H-cyclopenta[c]pyridin-7-yl)propanamide] | 6.69 | 5.43 |  |
| N[C@@H]1CCCc2c(-c3ccc(C(F)(F)F)cc3F)cncc21 [Example 74, (+)-(R)-4-(2-Fluoro-4-(trifluoromethyl)phenyl)-5,6,7,8-tetrahydroisoquinolin-8-amine] | 7.48 | 5.91 |  |
| CC(=O)N[C@@H]1CCCc2c(-c3ccc(C(F)(F)F)cc3F)cncc21 [Example 75, (+)-(R)—N-(4-(2-Fluoro-4-(trifluoromethyl)phenyl)-5,6,7,8-tetrahydroisoquinolin-8-yl)acetamide] | 7.29 | 5.45 |  |
| CS(=O)(=O)N[C@@H]1CCCc2c(-c3ccc(C(F)(F)F)cc3F)cncc21 [Example 76, (+)-(R)—N-(4-(2-Fluoro-4-(trifluoromethyl)phenyl)-5,6,7,8-tetrahydroisoquinolin-8-yl)methanesulfonamide] | 6.93 | 4.63 |  |
| CC(=O)N[C@@H]1CCCc2c(-c3ccc(C(F)(F)F)cc3)cncc21 [Example 77, (+)-(R)—N-(4-(4-(Trifluoromethyl)phenyl)-5,6,7,8-tetrahydroisoquinolin-8-yl)acetamide] | 7.23 | 5.65 |  |
| CC(=O)N[C@@H]1CCCc2c(-c3ccc(C#N)cc3)cncc21 [Example 78, (+)-(R)—N-(4-(4-Cyanophenyl)-5,6,7,8-tetrahydroisoquinolin-8-yl)acetamide] | 7.63 | 6.56 |  |
| CC(=O)N[C@@H]1CCCc2c(-c3ccc(C(F)(F)F)c(F)c3)cncc21 [Example 79, (+)-(R)—N-(4-(3-Fluoro-4-(trifluoromethyl)phenyl)-5,6,7,8-tetrahydroisoquinolin-8-yl)acetamide] | 7.45 | 5.75 |  |
| CCC(=O)N[C@@H]1CCCc2c(-c3ccc(C(F)(F)F)cc3C3CC3)cncc21 [Example 107, (R)—N-(4-(2-Cyclopropyl-4-(trifluoromethyl)phenyl)-5,6,7,8-tetrahydroisoquinolin-8-yl)propionamide] | 6.02 | 5.11 |  |
| N#Cc1ccc(C2CCCc3cncn32)cc1 (stereo not shown) [FAD286] |  |  | plasma aldosterone [2]: reduced |
| N#Cc1ccc([C@H]2CCc3cncn32)c(F)c1 [LCI699] |  |  | blood pressure (CYP11B2 [3]): mildly decreased; circulating aldosterone levels (CYP11B2 [3]): significantly lower; hypokalemia (CYP11B2 [3]): corrected |
| CC(=O)S[C@@H]1CC2=CC(=O)CC[C@]2(C)[C@H]2CC[C@@]3(C)[C@@H](CC[C@@]34CCC(=O)O4)[C@H]12 [spironolactone] |  |  | plasma aldosterone [2]: increased |
